Reference: patent publication US12138583B2, “Process for removal of acid gases from a fluid stream with a liquid absorbent comprising a piperazine ring” (BASF SE, priority 2019, dated 2024)
Read-outs that look alike come from different tables or passages of the source.

Tests used:
Assay type in all cases: physicochemical
[1] = pKA value by titration with hydrochloric acid; conditions: for Second pKA value (in words) / pKa: 20° C.; for pKa: aqueous solution, aqueous solution 0.005 mol amine per liter, HCl 0.1 mol/L; for First pKA value (in words): at relatively low temperatures (20° C.)
[2] = Acid gas loading capacity: H2S loading and stripping experiment; conditions: for H2S loading after loading / H2S loading after stripping / Cyclic H2S capacity: 30 wt.-% amine in water; for H2S loading after loading: 40° C., ambient pressure, 8 L (STP)/h H2S, about 4 h; for H2S loading after stripping: stripping at 80° C. with N2 8 L (STP)/h, 60 min; for Cyclic H2S capacity: difference of loading after loading and after stripping
Procedure: (§1) A loading experiment and subsequently a stripping experiment were conducted. A glass condenser, which was operated at 5° C., was attached to a glass cylinder with a thermostated jacket. Condensate obtained in the course of the experiment was returned to the glass cylinder so as to prevent distortion of the test results by partial evaporation of the absorbent.
(§2) The glass cylinder was initially charged with about 100 mL of unladen absorbent (30% by weight of amine in water). To determine the absorption capacity, at ambient pressure and 40° C., 8 L (STP)/h of CO2 or H2S were passed through the absorption liquid via a frit over a period of about 4 h. Subsequently, the loading of CO2 or H2S was determined as follows:
(§3) The determination of H2S was effected by titration with silver nitrate solution. For this purpose, the sample to be analyzed was weighed into an aqueous solution together with about 2% by weight of sodium acetate and about 3% by weight of ammonia. Subsequently, the H2S content was determined by a potentiometric turning point titration by means of silver nitrate. At the turning point, H2S is fully bound as Ag2S. The CO2 content was determined as total inorganic carbon (TOC-V Series Shimadzu).
(§4) The laden solution was stripped by heating an identical apparatus setup to 80° C., introducing the laden absorbent and stripping it by means of an N2 stream (8 L (STP)/h). After 60 min, a sample was taken and the CO2 or H2S loading of the absorbent was determined as described above.
(§5) The difference in the loading at the end of the loading experiment and the loading at the end of the stripping experiment gives the respective cyclic capacity.

[3] = Thermal stability of aqueous amine solutions with and without acid gas loading; conditions: 150° C., 125 h; for Ratio of Degradation Without Acid Gas Loading: closed cylinder, amine concentration by GC before and after; for Ratio of Degradation Without Acid Gas Loading / Ratio of Degradation With Acid Gas Loading: in water: MDEA 40, TBAP-MPIP 30, TBAE-MPIP 25, DEAE-EPIP 30 wt.-%; for Ratio of Degradation With Acid Gas Loading: 20 m^3 (STP)/tsolvent CO2 and 20 m^3 (STP)/tsolvent H2S
Procedure: The thermal stability of TBAP-MPIP (30 wt.-% in water) and TBAE-MPIP (25 wt.-% in water) was compared to both MDEA (40 wt.-% MDEA in water) and DEAE-EPIP (30 wt.-% DEAE-EPIP in water) with and without acid gas loading.
A cylinder (10 mL) was initially charged with the respective solution (8 mL) and the cylinder was closed. […] In the experiments conducted under acid gas loading, the acid gas loading of the solutions was 20 m^3 (STP)/tsolvent of CO2 and 20 m^3 (STP)/tsolvent of H2S. The decomposition level of the amines was calculated from the amine concentration measured by gas chromatography before and after the experiment.

[4] = Acid gas loading capacity: CO2 loading and stripping experiment; conditions: for CO2 loading after loading / CO2 loading after stripping / Cyclic CO2 capacity: 30 wt.-% amine in water; for CO2 loading after loading: 40° C., ambient pressure, 8 L (STP)/h CO2, about 4 h; for CO2 loading after stripping: stripping at 80° C. with N2 8 L (STP)/h, 60 min; for Cyclic CO2 capacity: difference of loading after loading and after stripping; for Acid gas loading capacities (in words): CO2 and H2S, absorbents 30 wt.-% in water, compared with TBAEE and MDEA
Procedure: as §1, §2, §3, §4, §5

[5] = Relative volatility: N2 passed through the absorbent, condensate analysed by GC and Karl Fischer titration; conditions: for Amine (in condensate) / Water (in condensate) / Condensate: 30 wt.-% aqueous solution, 50° C., 8 h; for Amine (in condensate) / Water (in condensate): 30 L (STP)/h N2; for Amine (in condensate): GC; for Water (in condensate): Karl Fischer titration; for Condensate: 200 mL, 30 L (STP)/h N2, condenser 5° C.; for Volatility (in words): 30 wt.-% aqueous solutions
Procedure: The volatility of amines TBAP-MPIP and TBAE-MPIP in 30 wt.-% aqueous solutions was compared to that of amines M3ETB, MDEA and TBAEPY in 30% wt.-% aqueous solutions.
A glass condenser, which was operated at 5° C., was attached to a glass cylinder with a thermostated jacket. The glass cylinder was thermostated to 50° C., and 200 mL of the absorbent were introduced for each test. Over an experimental duration of 8 h, 30 L (STP)/h of N2 were passed through the absorbent at ambient pressure. For each amine, the test was conducted three times. The condensate was analyzed by means of GC and Karl Fischer titration.

Compound	Second pKA value (in words) [1]	pKa ([1]; read-out: pKA 1)	pKa ([1]; read-out: pKA 2)	pKa ([1]; read-out: pKA 3)	First pKA value (in words) [1]	H2S loading after loading [2]	H2S loading after stripping [2]	Cyclic H2S capacity [2]	Stability in aqueous solutions (in words) [3]	Ratio of Degradation Without Acid Gas Loading [3]	Ratio of Degradation With Acid Gas Loading [3]	CO2 loading after loading [4]	CO2 loading after stripping [4]	Cyclic CO2 capacity [4]	Acid gas loading capacities (in words) [4]	Amine (in condensate) [5]	Water (in condensate) [5]	Condensate [5]	Volatility (in words) [5]	Cyclic H2S capacity (in words) ([2]; 30 wt.-% in water, comparison with TBAP-MPIP and TBAE-MPIP)
CN1CCN(CCCNC(C)(C)C)CC1 [TBAP-MPIP, 3-(4-methylpiperazin-1-yl)propyl-tert-butylamine]	close to the pKa value of MDEA	10.7	7.68	5.8	high first pKA values	1.48 mol H2S/molamine	0.33 mol H2S/molamine	1.15 mol H2S/molamine	comparable to MDEA, and higher than DEAE-EPIP	0.99	0.91	1.41 mol CO2/molamine	0.70 mol CO2/molamine	0.71 mol CO2/molamine	significantly higher acid gas loading capacities than absorbents based on TBAEE and MDEA	0.3 wt %	99.7 wt %	30.3 mL	suitably low volatility	–
CC(C)(C)NCCOCCO [TBAEE, 2-(2-tert-butylaminoethoxy)ethanol, reference compound]	–	–	–	–	–	–	–	–	–	–	–	0.97 mol CO2/molamine	0.24 mol CO2/molamine	0.73 mol CO2/molamine	–	–	–	–	–	–
COCCOCCOCCNC(C)(C)C [M3ETB, (2-(2-(2-tert-butylaminoethoxy)ethoxy)ethyl)methyl ether, reference compound]	–	–	–	–	–	–	–	–	–	–	–	–	–	–	–	0.7 wt %	99.2 wt %	30.1 mL	–	–
CC(C)(C)NCCN1CCCC1=O [TBAEPY, 1-[2-(tert-butylamino)ethyl]pyrrolidin-2-one, reference compound]	–	–	–	–	–	–	–	–	–	–	–	–	–	–	–	0.2 wt %	99.5 wt %	28.8 mL	–	–
CCN(CC)CCN1CCN(CC)CC1 [DEAE-EPIP, 2-(4-ethylpiperazin-1-yl)ethyl-diethylamine, reference compound]	–	10.3	8.61	6.2	–	0.98 mol H2S/molamine	0.31 mol H2S/molamine	0.67 mol H2S/molamine	–	1.00	0.77	1.48 mol CO2/molamine	0.13 mol CO2/molamine	1.35 mol CO2/molamine	–	–	–	–	–	significantly lower than the capacity of both TBAP-MPIP and TBAE-MPIP
CN1CCN(CCNC(C)(C)C)CC1 [TBAE-MPIP, 2-(4-methylpiperazin-1-yl)ethyl-tert-butylamine]	close to the pKa value of MDEA	10	8.82	5.47	high first pKA values	1.62 mol H2S/molamine	0.35 mol H2S/molamine	1.27 mol H2S/molamine	comparable to MDEA, and higher than DEAE-EPIP	1.00	0.88	1.46 mol CO2/molamine	0.22 mol CO2/molamine	1.24 mol CO2/molamine	significantly higher acid gas loading capacities than absorbents based on TBAEE and MDEA	0.7 wt %	99.3 wt %	29.28 mL	suitably low volatility	–
